In the supplement of paper PMC11451515:

Tests used:
Settings in all cases: 48 h
SEM cells [1] = test: cell viability relative to DMSO control; higher = less cytotoxic
Summary of the method: (§1)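 Three leukemia lines were tested: NOMO1 and SEM at 500 cells/well and P12-Ichikawa at 1000 cells/well. Each was adapted for at least four passages in each medium and seeded in 5 μl in 1536-well plates, and library compounds in DMSO were pin-dosed from 47 μM to 0.79 nM in 11 threefold steps. After 48 h at 37°C, CellTiter-Glo One luminescence was read. Viability is a percentage relative to DMSO wells on each plate, with cell-free wells as background.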

NOMO1 [2] = test: AUC of viability dose-response curve (% viability x log10 dose units); higher = less sensitive
Summary of the method: (§2)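 Library compounds in DMSO were applied for 48 h at 37°C at 11 threefold doses (47 μM to 0.79 nM) to medium-adapted leukemia cells in 1536-well plates holding 500 or 1000 cells/well. Luminescence from CellTiter-Glo One was normalised plate by plate against DMSO and cell-free wells. Area under the curve came from trapezoidal integration of a log-logistic fit, after scaling curves that rose above full viability and discarding those that failed quality control. The fit had four parameters and used log10 doses.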

SEM cells [3] = test: as above
Summary of the method: as §2

P12-Ichikawa [4] = test: as above
Summary of the method: as §2

NOMO1 [5] = test: cell viability relative to DMSO control; higher = less cytotoxic
Summary of the method: as §1

P12-Ichikawa [6] = test: as above
Summary of the method: as §1

CN1CCN(c2ncc(-c3cc(Cl)cc(Cl)c3Cl)c(N)n2)CC1
cell viability [%], SEM cells [1]
Settings | RPMI 5 mM glucose + 10% FBS | RPMI 5 mM glucose + 10% dialyzed FBS
0.000781 µM | 111 | 106
0.00234 µM | 117 | 118
0.00702 µM | 133 | 117
0.0211 µM | 137 | 133
0.0632 µM | 135 | 139
0.19 µM | 135 | 135
0.569 µM | 126 | 150
1.71 µM | 135 | 141
5.12 µM | 155 | 144
15.4 µM | 138 | 141
46.1 µM | 132 | 132

AUC of viability dose-response curve
Settings | HPLM + 10% dialyzed FBS | RPMI 5 mM glucose + 10% FBS | RPMI 5 mM glucose + 10% dialyzed FBS
NOMO1 [2] | 337 | 305 | 341
SEM cells [3] | 467 | 459 | 450

N=C1S/C(=C\c2ccc(-c3ccc4c(c3)C(=O)NC4=O)o2)C(=O)N1c1ccc(Br)cc1
AUC of viability dose-response curve
Settings | NOMO1 [2] | P12-Ichikawa [4] | SEM cells [3]
HPLM + 10% dialyzed FBS | 444 | 452 | 453
RPMI 5 mM glucose + 10% FBS | 464 | 443 | 365
RPMI 5 mM glucose + 10% dialyzed FBS | 459 | 448 | 458

COc1cccc2c1C(=O)c1c(O)c3c(c(O)c1C2=O)C[C@@](O)(C(=O)CO)C[C@@H]3O[C@H]1C[C@H](N)[C@@H](O)[C@H](C)O1
AUC of viability dose-response curve
Settings | NOMO1 [2] | P12-Ichikawa [4] | SEM cells [3]
HPLM + 10% dialyzed FBS | 369 | 364 | 359
RPMI 5 mM glucose + 10% FBS | 362 | 359 | 309
RPMI 5 mM glucose + 10% dialyzed FBS | 365 | 363 | 327

COC1=CC(c2cc3ccccc3[nH]2)=N/C1=C/c1[nH]c(C)cc1C
AUC of viability dose-response curve
Settings | NOMO1 [2] | P12-Ichikawa [4] | SEM cells [3]
HPLM + 10% dialyzed FBS | 463 | 455 | 436
RPMI 5 mM glucose + 10% FBS | 470 | 450 | 420
RPMI 5 mM glucose + 10% dialyzed FBS | 448 | 452 | 391

COc1nc(N)nc2c1ncn2[C@@H]1O[C@H](CO)[C@@H](O)[C@@H]1O
AUC of viability dose-response curve
Settings | NOMO1 [2] | P12-Ichikawa [4] | SEM cells [3]
HPLM + 10% dialyzed FBS | 458 | 455 | 472
RPMI 5 mM glucose + 10% FBS | 444 | 462 | 449
RPMI 5 mM glucose + 10% dialyzed FBS | 448 | 456 | 463

C[C@@H]1C[C@@H]([C@H](O)CC2CC(=O)NC(=O)C2)C(=O)[C@@H](C)C1
AUC of viability dose-response curve
Settings | NOMO1 [2] | P12-Ichikawa [4] | SEM cells [3]
HPLM + 10% dialyzed FBS | 315 | 312 | 279
RPMI 5 mM glucose + 10% FBS | 337 | 288 | 268
RPMI 5 mM glucose + 10% dialyzed FBS | 323 | 299 | 295

OC(=O)CNC(=O)\C1=C(/O)C2=CC=CC=C2N(CC3=CC=CC=C3)C1=O
cell viability [%]
Settings | NOMO1 [5] | P12-Ichikawa [6] | SEM cells [1]
HPLM + 10% dialyzed FBS, 0.000781 µM | 98.2 | 97.6 | 106
HPLM + 10% dialyzed FBS, 0.00234 µM | 109 | 113 | 104
HPLM + 10% dialyzed FBS, 0.00702 µM | 92 | 102 | 105
HPLM + 10% dialyzed FBS, 0.0211 µM | 112 | 104 | 125
HPLM + 10% dialyzed FBS, 0.0632 µM | 108 | 104 | 54
HPLM + 10% dialyzed FBS, 0.19 µM | 97.7 | 100 | 99.2
HPLM + 10% dialyzed FBS, 0.569 µM | 105 | 105 | 116
HPLM + 10% dialyzed FBS, 1.71 µM | 87.3 | 101 | 104
HPLM + 10% dialyzed FBS, 5.12 µM | 109 | 101 | 111
HPLM + 10% dialyzed FBS, 15.4 µM | 101 | 103 | 102
HPLM + 10% dialyzed FBS, 46.1 µM | 93.6 | 39.4 | 106
RPMI 5 mM glucose + 10% FBS, 0.000781 µM | 83.7 | 98.7 | 98.1
RPMI 5 mM glucose + 10% FBS, 0.00234 µM | 89.5 | 108 | 103
RPMI 5 mM glucose + 10% FBS, 0.00702 µM | 100 | 113 | 117
RPMI 5 mM glucose + 10% FBS, 0.0211 µM | 91.7 | 114 | 112
RPMI 5 mM glucose + 10% FBS, 0.0632 µM | 96.3 | 108 | 17.9
RPMI 5 mM glucose + 10% FBS, 0.19 µM | 93 | 101 | 104
RPMI 5 mM glucose + 10% FBS, 0.569 µM | 96.2 | 102 | 107
RPMI 5 mM glucose + 10% FBS, 1.71 µM | 83.5 | 107 | 94.7
RPMI 5 mM glucose + 10% FBS, 5.12 µM | 84.9 | 93 | 106
RPMI 5 mM glucose + 10% FBS, 15.4 µM | 85.1 | 97.2 | 97.4
RPMI 5 mM glucose + 10% FBS, 46.1 µM | 86.4 | 92.8 | 88.9
RPMI 5 mM glucose + 10% dialyzed FBS, 0.000781 µM | 93 | 90.4 | 121
RPMI 5 mM glucose + 10% dialyzed FBS, 0.00234 µM | 94.6 | 97.9 | 116
RPMI 5 mM glucose + 10% dialyzed FBS, 0.00702 µM | 87.9 | 104 | 111
RPMI 5 mM glucose + 10% dialyzed FBS, 0.0211 µM | 101 | 95.1 | 106
RPMI 5 mM glucose + 10% dialyzed FBS, 0.0632 µM | 95.7 | 93.1 | 89.3
RPMI 5 mM glucose + 10% dialyzed FBS, 0.19 µM | 94 | 94.4 | 117
RPMI 5 mM glucose + 10% dialyzed FBS, 0.569 µM | 97.2 | 94 | 119
RPMI 5 mM glucose + 10% dialyzed FBS, 1.71 µM | 102 | 93.1 | 114
RPMI 5 mM glucose + 10% dialyzed FBS, 5.12 µM | 94.7 | 95.8 | 105
RPMI 5 mM glucose + 10% dialyzed FBS, 15.4 µM | 93 | 94.5 | 86.3
RPMI 5 mM glucose + 10% dialyzed FBS, 46.1 µM | 74.3 | 5.26 | 109

AUC of viability dose-response curve
Settings | HPLM + 10% dialyzed FBS | RPMI 5 mM glucose + 10% FBS | RPMI 5 mM glucose + 10% dialyzed FBS
NOMO1 [2] | 466 | 430 | 450
P12-Ichikawa [4] | 462 | 456 | 433

CCc1cnn2c(NCc3ccc[n+]([O-])c3)cc(N3CCCC[C@H]3CCO)nc12
AUC of viability dose-response curve
Settings | NOMO1 [2] | P12-Ichikawa [4] | SEM cells [3]
HPLM + 10% dialyzed FBS | 224 | 236 | 206
RPMI 5 mM glucose + 10% FBS | 231 | 230 | 193
RPMI 5 mM glucose + 10% dialyzed FBS | 223 | 234 | 198
